# Test results published in patent US5468760A, “Aralkyl-N-hydroxyureas as inhibitors of 5-lipoxygenase and oxidation of low density lipoprotein” (American Home Products Corporation, priority 1993, dated 1995).
# Tests used:
# [1] = molecular target: T1, 5-Lipoxygenase (Homo sapiens, UniProt P09917); assay: Inhibition of 5-Lipoxygenase in Human Whole Blood (LTB4, calcium ionophore A23187); assay type: cell-based
# T1 construct: endogenous in cells; host or cells: human whole blood from male donors (results expressed per 10^6 neutrophils)
# T1 sequence (P09917 1-674): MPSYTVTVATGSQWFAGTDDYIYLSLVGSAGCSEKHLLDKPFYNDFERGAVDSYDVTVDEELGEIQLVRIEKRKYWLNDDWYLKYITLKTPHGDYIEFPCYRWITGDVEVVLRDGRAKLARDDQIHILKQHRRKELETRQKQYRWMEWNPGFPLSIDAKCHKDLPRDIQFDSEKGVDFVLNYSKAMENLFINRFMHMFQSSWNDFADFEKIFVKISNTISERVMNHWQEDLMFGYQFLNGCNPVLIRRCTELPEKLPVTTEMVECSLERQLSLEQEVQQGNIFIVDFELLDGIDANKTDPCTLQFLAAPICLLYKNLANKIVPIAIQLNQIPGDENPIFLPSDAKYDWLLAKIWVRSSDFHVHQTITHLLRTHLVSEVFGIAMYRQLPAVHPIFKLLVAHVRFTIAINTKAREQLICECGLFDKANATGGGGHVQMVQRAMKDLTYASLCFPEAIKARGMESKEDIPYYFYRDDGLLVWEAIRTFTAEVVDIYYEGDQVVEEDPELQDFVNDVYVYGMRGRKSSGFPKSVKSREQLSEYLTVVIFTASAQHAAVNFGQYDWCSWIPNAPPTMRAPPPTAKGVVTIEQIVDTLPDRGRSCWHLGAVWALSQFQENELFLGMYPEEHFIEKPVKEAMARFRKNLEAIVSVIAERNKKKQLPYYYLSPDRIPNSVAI
# Experimental: 1. Inhibition of 5-Lipoxygenase in Human Whole Blood
# Blood is obtained in 50-100 ml quantities from male donors. White blood cell counts and differentials are made. Two ml of blood are placed in a 15 ml polypropylene test tube. Test compounds are solubilized in dimethylsulfoxide and diluted in 1:10 in 10% bovine serum albumin in phosphate buffered saline, pH 7.4 resulting in a final dimethylsulfoxide concentration of 0.1% in the blood. Then, solutions of test compounds are added to the blood in a shaking water bath at 37° C. for 10 minutes prior to the addition of 30 μM calcium ionophore (A23 187, Sigma). After ionophore administration, whole blood samples are mixed and incubated for 20 minutes at 37° C. in a shaking water bath. Incubation is terminated by placing samples in an ice bath and immediately adding ethylene glycol-bis-(β-aminoethyl ether)-N,N,N',N'-tetraaceticacid (10 mM). Samples are mixed and centrifuged at 1200 x g for 15 minutes at 4° C. Preparation of samples for evaluation by RIA or ELISA is carried out by the following protocol. Plasma is removed from sample tubes, placed in 15 ml polypropylene test tubes containing 8 ml methanol, and then vortexed to precipitate protein. Samples are stored at -70° C. overnight. The next day, samples are centrifuged at 200 x g for 15 minutes at 4° C. to pellet the precipitate. Samples are dried in a Savant SpeedVac Concentrator, Model SVC 200H, reconstituted to original volume with ice cold RIA or ELISA buffer, and stored at -70° C. until assayed. The assay for eicosanoids (LTB4, TxB2, and PGE2) is performed as described by the manufacturer of the [^3 H]-RIA kit or ELISA kit (LTB4 -Amersham, TxB2 and PGE2 -Caymen Chemical).
# The total eicosanoid level in 2 ml of blood is calculated and reported as ng/10^6 neutrophils. Significance is determined by a one-way analysis of variance with least significant difference (LSD) comparisons to control (p≤0.05) and IC50 's (μM) are determined by regression analysis (Finney, 1978). Drug effects are expressed as percent change from control values.
# [2] = tested on: LTB4 Synthesis; assay: Reverse Passive Arthus Reaction (pleurisy), LTB4 in pleural exudate; assay type: in vivo, rat (male Lewis); settings: for ED50: Rattus norvegicus, po, values in parentheses are ED50, read-out: (ED50) Inhibition of LTB4; for ED50 / % Inhibition of LTB4: standard drugs
# Experimental: 3. Reverse Passive Arthus Reaction
# A reverse passive Arthus reaction is induced in the pleural cavity of male Lewis rats (150-200 g; fasted overnight prior to use) by the intravenous administration of bovine serum albumin (BSA; 4 mg/0.2 ml) followed 30 minutes later by the injection of rabbit anti-BSA (1 mg/0.2 ml; lyophilized IgG fraction; Organon Teknika, West Chester, Pa.) into the right pleural space under halothane anesthesia. Drugs or vehicle (0.5% Tween-80) control are administered orally in a volume of 1 ml/100 g body weight at 1 hour prior to the anti-BSA. Animals are sacrificed at either the time of peak eicosanoid production (i.e. 5 minutes after anti-BSA for immunoreactive TxB2, 10 minutes for immunoreactive LTB4, 20 minutes for immunoreactive LTC4) or at the time of peak neutrophil infiltration (4 hours after anti-BSA) by CO2 inhalation. The pleural cavity is then exposed., the fluid exudate removed by gentle vacuum aspiration and the volume of exudate is recorded. For the determination of cellular infiltration, the pleural cavity is rinsed with 3 ml of 0.1% EDTA in sterile saline, and the recovered wash is pooled with the exudate. Cell number is determined on a model ZBI Coulter counter. For determination of eicosanoid production, undiluted pleural exudate is microfuged and the supernatant is extracted with ethanol (8-10 times volume). Extracts are either stored at -20° C., or are evaporated to dryness under a stream of N2 and reconstituted in radioimmunoassay (RIA) buffer.
# Eicosanoids are quantitated by RIA according to the procedure specified by the RIA kit manufacturer (Advanced Magnetics, Cambridge, Mass.). Briefly, 100 μl of ^3 H-labeled eicosanoid and 100 μl of specific antibody are sequentially added to 100 μl of extracted pleural exudate in BGG-phosphate buffer which contains 0.01M phosphate, 0.1% bovine gamma globulin and 0.1% sodium azide at pH 7.0. Antibody-bound eicosanoid is separated from unbound eicosanoid by the addition of 750 μl of dextran (0.4%)-coated charcoal (Norit A) containing 0.1% sodium azide. The mixture is centrifuged at 2000 RPM at 5° C. for 15 minutes to pellet the charcoal and adsorbed unbound eicosanoid. Antibody-bound labeled eicosanoid is quantitated by counting in a liquid scintillation counter, and is correlated to concentration by a standard curve.
# [3] = tested on: LT-dependent bronchoconstriction; assay: Inhibition of Bronchoconstriction in Guinea Pigs Induced by Exogenously Administered Antigen; assay type: in vivo, guinea pig (male); settings: Cavia porcellus, 5 min, 5 min post-antigen challenge; for inhibition in vivo at 10 mg/kg: iv, 10 mg/kg i.v.
# Experimental: 4. Inhibition of Brochoconstriction in Guinea Pigs Induced by Exogenously Administered Antigen
# Male guinea pigs (Charles River, Wilmington, Mass.) were sensitized 3-4 weeks prior to antigen challenge by administration of 2 i.m. injections of ovalbumin, 1 into each hind limb (35 mg total). Sensitized animals (500-600 g) were fasted overnight prior to experimentation. Conscious animals were then dosed p.o. with drug or vehicle alone (0.5% Tween 80 in H2 O) at the indicated times prior to antigen challenge, or anesthetized animals were dosed i.v. with drug or vehicle alone (DMSO) 5 min prior to antigen challenge. Animals were anesthetized by urethane (2.8 g/kg i.p.). A carotid artery and jugular vein were cannulated to allow for the monitoring of blood pressure and the administration of drugs, respectively. The trachea was then cannulated and connected to a Harvard Apparatus rodent ventilator (S. Natick, Mass.). Spontaneous respiration was abolished by the administration of succinylcholine (2.5 mg/kg i.v.). The animals were then ventilated with room air at a rate of 65 breaths per min. Airway inflation pressure was measured using a Statham pressure transducer (Gould Instruments, Cleveland, Ohio) connected to the tracheal cannula via a side-arm and recorded on a Grass Instruments recorder (Quincy, Mass.). The tidal volume (approximately 10 cc/kg) was adjusted to give a baseline inflation pressure of 8-10 cm H2 O at end inspiration. Animals were then allowed 20 min to stabilize.
# Following the stabilization period, animals were given i.v. injections of pyrilamine (5 mg/kg), propranolol (0.1 mg/kg) and indomethacin (10 mg/kg) at 15, 10 and 5 min, respectively, prior to antigen challenge. This pretreatment results in an LT-dependent bronchoconstriction following antigen challenge, which was accomplished by i.v. administration of ovalbumin (10 mg/kg). Only one bronchoconstriction per animal was induced. End-inspiratory inflation pressure (in cm H2 O over baseline) was measured at 5 min post-antigen challenge. A mean value and standard error for the % inhibition of control bronchoconstriction in each drug-treated group was then calculated.
molecule,measurement,setting,value
"1,3-Dihydroxy-1-[4-(5-methyl-2-phenyl-oxazol-4-ylmethoxy)-benzyl]-urea [Example 17]",% Inhibition of LTB4,[1]; 10 μM,83%
"NC1=NN(c2cccc(C(F)(F)F)c2)CC1 [BW755C, reference compound]",ED50,[2]; p.o.,23 mg/kg
"O=C(O)Cc1ccccc1Nc1c(Cl)cccc1Cl [Diclofenac, reference compound]",% Inhibition of LTB4,[2]; 10 mg/kg p.o.,0%
"NC(=S)N(O)Cc1cccc(OCc2coc(-c3ccc(F)cc3)n2)c1 [Example 4, 1-Hydroxy-1-[3-[2-(4-fluoro-phenyl)-oxazol-4-ylmethoxy]-benzyl]-thiourea]",inhibition at 1 µM,[1],61%
same,inhibition in vivo at 10 mg/kg,[3],53%
"COc1ccc(-c2nc(COc3cccc(CN(O)C(N)=O)c3)cs2)cc1 [Example 7, 1-Hydroxy-1-[3-[2-(4-methoxy-phenyl)-thiazol-4-ylmethoxy]-benzyl]-urea]",inhibition at 1 µM,[1],50%
same,inhibition in vivo at 10 mg/kg,[3],58%
same,inhibition in vivo at 25 mg/kg,"[3]; po, 25 mg/kg p.o.",18%
"Cc1oc(-c2ccc(Cl)cc2)nc1COc1cccc(CN(O)C(N)=O)c1 [Example 8, 1-[3-[2-(4-Chloro-phenyl)-5-methyl-oxazol-4-ylmethoxy]-benzyl]-1-hydroxy-urea]",inhibition at 1 µM,[1],77%
same,% Inhibition LTB4 Synthesis,"[2]; 10 mg/kg, p.o.",39%
same,inhibition in vivo at 10 mg/kg,[3],41%
"Cc1oc(-c2cccc(C(F)(F)F)c2)nc1COc1cccc(CN(O)C(N)=O)c1 [Example 10, 1-Hydroxy-1-[3-[2-(3-trifluoromethyl-phenyl)-5-methyl-oxazol-4-ylmethoxy]-benzyl]-urea]",inhibition at 1 µM,[1],51%
"Cc1oc(-c2cc(C(F)(F)F)cc(C(F)(F)F)c2)nc1COc1cccc(CN(O)C(N)=O)c1 [Example 11, 1-[3-[2-(3,5-Bis-trifluoromethyl-phenyl)-5-methyl-oxazol-4-ylmethoxy]-benzyl]-1-hydroxy-urea]",inhibition at 10 µM,[1]; 10 μM,57%
"Cc1oc(-c2ccc(C(F)(F)F)cc2)nc1COc1cc(F)cc(CN(O)C(N)=O)c1 [Example 12, 1-[3-Fluoro-5-[5-methyl-2-(4-trifluoromethyl-phenyl)-oxazol-4-ylmethoxy]-benzyl]-1-hydroxy-urea]",inhibition at 10 µM,[1]; 10 μM,85%
"Cc1oc(-c2ccccc2)nc1COc1cccc(C(C)N(O)C(N)=O)c1 (stereo not shown) [Example 14, 1-Hydroxy-1-[1-[3-(5-methyl-2-phenyl-oxazol-4-ylmethoxy)-phenyl]-ethyl]-urea]",inhibition at 10 µM,[1]; 10 μM,80%
"CC(/C=C/c1cccc(OCc2csc(-c3ccccc3)n2)c1)N(O)C(N)=O (stereo not shown) [Example 15, (E)-1-Hydroxy-1-[1-methyl-3-[3-(2-phenyl-thiazol-4-ylmethoxy)-phenyl]-allyl]-urea]",inhibition at 10 µM,[1]; 10 μM,47%
"Cc1oc(-c2ccc(Cl)cc2)nc1COc1cccc(/C=C/C(C)N(O)C(N)=O)c1 (stereo not shown) [Example 16, (E)-1-[3-[3-[2-(4-chlorophenyl)-5-methyl-oxazol-4-ylmethoxy]-phenyl]-1-methyl-allyl]-1-hydroxyl-urea]",inhibition at 10 µM,[1]; 10 μM,57%
"Cc1oc(-c2ccccc2)nc1COc1cccc(CN(O)C(=O)N(C)O)c1 [Example 18, 1,3-Dihydroxy-3-methyl-1-[3-(5-methyl-2-phenyl-oxazol-4-ylmethoxy)benzyl]-urea]",inhibition at 10 µM,[1]; 10 μM,69%
"COc1ccc2c(c1)c(CC(=O)O)c(C)n2C(=O)c1ccc(Cl)cc1 [Indomethacin, reference compound]",% Inhibition of LTB4,[2]; 4 mg/kg p.o.,12%
"CC(C(=O)O)c1cccc(C(=O)c2ccccc2)c1 (stereo not shown) [Ketoprofen, reference compound]",% Inhibition of LTB4,[2]; 10 mg/kg p.o.,35%
"COc1ccc2cc([C@H](C)C(=O)O)ccc2c1 [Naproxen, reference compound]",% Inhibition of LTB4,[2]; 4 mg/kg p.o.,0%
"O=C1CCN(c2ccccc2)N1 [Phenidone, reference compound]",ED50,[2]; p.o.,10 mg/kg
